# Literature values as cited in patent US6794370B2, “Method for treating cancer using camptothecin derivatives and 5-fluorouracil” (priority 1999, dated 2004).
# Read-outs that look alike come from different tables or passages of the source.
# Columns and labels:
# [1] = tested on: metastatic colorectal cancer; details: 125 mg/m^2 intravenously
# colorectal cancer [2] = details: compared with supportive care only
# colorectal cancer [3] = details: metastatic disease, compared to no antitumour therapy
# colorectal cancer [4] = tested on: colorectal cancer
Molecule,median survival ([1]; first of two studies),response rate ([1]; first of two studies),median survival ([1]; second of two studies),response rate ([1]; second of two studies),quality of life (colorectal cancer [2]),survival (colorectal cancer [2]),survival time (colorectal cancer [3]),median survival time (colorectal cancer [4]; bolus administration),response rate (colorectal cancer [4]; bolus administration),median survival time (colorectal cancer [4]; infusional administration),response rate (colorectal cancer [4]; infusional administration)
Irinotecan [CPT-11],12.1 months,32%,11.8 months,26%,better quality of life,longer survival,–,–,–,–,–
"O=c1[nH]cc(F)c(=O)[nH]1 [5-FU, 5-fluorouracil]",–,–,–,–,–,–,11 months,11.3 months,14%,12.1 months,22%
